Measurements as given in patent US12163953B2, “P-phenylene ethynylene compounds as bioactive and detection agents” (STC.UNM, priority 2014, dated 2024).

Assays:
[1] = Photophysical properties of PEs alone (excitation/emission spectra, fluorescence yield); assay type: physicochemical; conditions: for λem (PB): phosphate buffer; for λex (PB), high-energy band / λex (PB), low-energy band: phosphate buffer pH 7.4, 10 mM, PE 500 nM
Procedure: Excitation and emission spectra of PEs in phosphate buffer alone, with monomeric HEWL and with HEWL amyloids (8 h incubated) are shown in FIGS. 18A-H, and relevant photophysical properties are summarized in Table 1. FIGS. 18A-H illustrate excitation (A, B, C, D) and emission (right; E, F, G. H) spectra of PEs (A, E: PE1+; B, F: PE1−; C, G: PE2+; D, H: […]) alone (long dashed line) with HEWL monomers (short dashed line) and with HEWL amyloids (solid line); PE concentration: 500 nM, protein concentration: 5 μM monomer basis/0.25 mg/mL; emission and excitation wavelengths, respectively, were chosen as shown in Table 1 for each sample. A 10:1 molar ratio of protein to PE was used for these experiments. Absorbance spectra were taken, but background light scattering from insoluble amyloid aggregates made them difficult to interpret, so “fluorescence detected absorbance” in the form of excitation spectra was used instead. Normalized excitation and emission spectra, in which peak shifts and lineshape changes of spectra were somewhat easier to visualize, were used. […] PE1+ (FIG. 18E) had no change in wavelength or lineshape of emission spectrum, just a large increase in intensity when mixed with amyloids. The excitation spectra (FIGS. 18A, B, C, D) show a notable bathochromic shift for each PE in solution mixed with amyloid, of 23, 27, 35 and 29 nm for PE1+, PE2+, PE3+ and PE1−, respectively, observing only the low-energy band. The high-energy band, less relevant for imaging purposes, was also bathochromically shifted. […] PE1− had similar excitation spectrum (FIG. 18B) with monomer and amyloid, except for a large intensity difference.
(§1) For studies of fluorescence enhancement vs. protein incubation time, dyes were mixed with protein sample in phosphate buffer (10 mM, pH 7.4) at equal monomer concentration of 10 μM in the wells of a standard 96-well plate. Emission spectra were obtained using top read with a SpectraMax M2e plate-reading spectrophotometer (Molecular Devices, Sunnyvale, CA). Experiments were performed in duplicate and errors are reported as standard deviation. For analysis of bound PE excitation and emission spectra and protein-PE energy transfer, PEs (500 nM) were mixed with protein sample (5 μM, monomer basis) in phosphate buffer and the solution transferred to a quartz, fluorometry cuvette. Spectra were obtained on a PTI QuantaMaster 40 steady state spectrofluorometer (HORIBA Scientific, Edison, NJ).

[2] = molecular target: T1, HEWL amyloid fibrils (Gallus gallus, UniProt P00698); experiment: Induced circular dichroism of PE-amyloid complexes; assay type: binding, hen; conditions: PEs 10 μM, HEWL 10 μM monomer basis
T1 construct: Lyophilized HEWL was dissolved at 10 mg/mL in 10 mM pH 3 sodium citrate buffer with 0.1 M NaCl; purchased Sigma-Aldrich; host or cells: hen egg white; fibrillised in house (pH 3, 70 °C, stirred)
T1 sequence (P00698 19-147): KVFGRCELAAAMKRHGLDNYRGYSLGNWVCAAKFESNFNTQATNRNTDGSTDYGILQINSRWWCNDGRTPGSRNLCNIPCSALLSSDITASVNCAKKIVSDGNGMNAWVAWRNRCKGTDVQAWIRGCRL
Procedure: Circular dichroism measurements were performed to determine if the intrinsic chirality of the HEWL fibrils was transferred to the PE chromophore by a chiral backbone twist or an “excitonic” chiral supramolecular aggregate. CD spectroscopy (CPEs in PB with HEWL monomer and with HEWL amyloid; performed for (a): PE1+; (b): PE1−; (c): PE2+; (d): PE3+; PEs 10 μM, HEWL 10 μM monomer basis/0.5 mg/mL) indicated induced circular dichroism of PEs when bound to HEWL amyloids. As expected, no PE had optical activity by itself in phosphate buffer solution and none of the PEs had any CD with HEWL monomer, including PE1−. […] PE2+ and PE3+ gave rise to similar CD spectra, with more intense bands in the spectrum for PE3+.
PEs and protein samples were diluted in phosphate buffer, gently vortexed, and read in a 1 mm pathlength quartz CD cuvette using an Aviv 410 CD spectrometer (Aviv Biomedical, Lakewood, NJ), 15 s averaging time. A blank spectrum (PB only) was subtracted from each sample to remove background activity. Error bars are standard deviation over multiple reads of a single sample as reported by the instrument.

[3] = molecular target: T2, HEWL fibrils incubated for different lengths of time (Gallus gallus, UniProt P00698); experiment: Fluorescence enhancement of dyes versus HEWL incubation time; assay type: binding, hen; conditions: dye 10 μM, HEWL 10 μM monomer basis
T2 construct: Lyophilized HEWL was dissolved at 10 mg/mL in 10 mM pH 3 sodium citrate buffer with 0.1 M NaCl; purchased Sigma-Aldrich; host or cells: hen egg white; fibrillised in house (pH 3, 70 °C, stirred)
T2 sequence (P00698 19-147): as above
Procedure: Hen egg white lysozyme (HEWL) was used to form fibrillary amyloid aggregates for use in this study. […] For these experiments. HEWL (Sigma-Aldrich) was incubated at 70′C and a concentration of 350 μM in pH 3 sodium citrate buffer (10 mM) with 100 mM NaCl.
A plot of normalized fluorescence enhancement for all four PEs and Thioflavin T with HEWL fibrils incubated for different lengths of time is shown in FIG. 15. PE1+ and PE2+ track amyloid formation in roughly the same way as ThT, showing a sigmoidal curve with onset of a logarithmic growth phase occurring at the same time, around 1 hour of incubation. The plateau phase, as monitored by fluorescence of any of those three PEs or ThT, appeared at 2 hours incubation.
as §1

CCOC(=O)c1ccc(C#Cc2cc(OCC[N+](C)(C)C)c(C#Cc3ccc(C#Cc4cc(OCC[N+](C)(C)C)c(C#Cc5ccc(C(=O)OCC)cc5)cc4OCC[N+](C)(C)C)cc3)cc2OCC[N+](C)(C)C)cc1 [PE2+]
λem (H2O) [1]: 448 nm | φfl (H2O) [1]: 0.039 | φfl (MeOH) [1]: 0.71 | λem (PB) [1]: 460 nm | λex (PB), high-energy band [1]: 330 nm | λex (PB), low-energy band [1]: 399 nm | induced circular dichroism with HEWL amyloid [2]: strong induced CD with a negative Cotton effect | HEWL incubation time at which the plateau phase of fluorescence enhancement appears [3]: 2 h

CCOC(=O)c1ccc(C#Cc2cc(OCC[N+](C)(C)C)c(C#Cc3ccc(C#Cc4cc(OCC[N+](C)(C)C)c(C#Cc5ccc(C#Cc6cc(OCC[N+](C)(C)C)c(C#Cc7ccc(C(=O)OCC)cc7)cc6OCC[N+](C)(C)C)cc5)cc4OCC[N+](C)(C)C)cc3)cc2OCC[N+](C)(C)C)cc1 [PE3+]
λem (H2O) [1]: 440 nm | φfl (H2O) [1]: 0.069 | φfl (MeOH) [1]: 0.70 | λem (PB) [1]: 464 nm | λex (PB), high-energy band [1]: 340 nm | λex (PB), low-energy band [1]: 399 nm | induced circular dichroism with HEWL amyloid [2]: strong induced CD with a negative Cotton effect | HEWL incubation time at which the plateau phase of fluorescence enhancement appears [3]: up to 3.5 hours
